In ChEMBL document CHEMBL4800729 (2021):

How the values were obtained:
[1] = biological target: SNF-related serine/threonine-protein kinase (Homo sapiens) (UniProt Q9NRH2); experiment: SNRK(h) Millipore kinase panel; conditions: Compound concentration 1.0 uM
[2] = biological target: Polyunsaturated fatty acid lipoxygenase ALOX15 (Homo sapiens) (UniProt P16050); experiment: Inhibition of Lipoxygenase 15-LO at compound concentration of 10.0 uM in the Eurofins-Panlabs enzyme assay (Eurofins_assay_199017); conditions: Compound concentration 10.0 uM
[3] = biological target: T1, 5-hydroxytryptamine receptor 1A (Homo sapiens) (UniProt P08908); conditions: Compound concentration 10.0 uM
T1 sequence (whole entry): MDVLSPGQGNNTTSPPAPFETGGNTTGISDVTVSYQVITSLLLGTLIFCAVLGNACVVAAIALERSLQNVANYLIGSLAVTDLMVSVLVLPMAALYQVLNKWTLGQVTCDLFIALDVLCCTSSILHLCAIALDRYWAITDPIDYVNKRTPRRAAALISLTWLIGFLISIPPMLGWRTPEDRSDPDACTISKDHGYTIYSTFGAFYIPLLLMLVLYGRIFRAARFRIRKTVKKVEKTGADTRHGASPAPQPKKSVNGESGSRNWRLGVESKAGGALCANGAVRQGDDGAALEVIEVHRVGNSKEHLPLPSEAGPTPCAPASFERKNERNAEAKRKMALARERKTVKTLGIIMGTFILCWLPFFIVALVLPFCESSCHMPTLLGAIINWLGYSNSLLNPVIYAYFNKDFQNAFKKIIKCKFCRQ

[4] = biological target: Serine/threonine-protein kinase ULK2 (Homo sapiens) (UniProt Q8IYT8); experiment: ULK2(h) Millipore kinase panel; conditions: Compound concentration 1.0 uM
Serine/threonine-protein kinase ULK2 (Homo sapiens), sequence (Q8IYT8 whole entry): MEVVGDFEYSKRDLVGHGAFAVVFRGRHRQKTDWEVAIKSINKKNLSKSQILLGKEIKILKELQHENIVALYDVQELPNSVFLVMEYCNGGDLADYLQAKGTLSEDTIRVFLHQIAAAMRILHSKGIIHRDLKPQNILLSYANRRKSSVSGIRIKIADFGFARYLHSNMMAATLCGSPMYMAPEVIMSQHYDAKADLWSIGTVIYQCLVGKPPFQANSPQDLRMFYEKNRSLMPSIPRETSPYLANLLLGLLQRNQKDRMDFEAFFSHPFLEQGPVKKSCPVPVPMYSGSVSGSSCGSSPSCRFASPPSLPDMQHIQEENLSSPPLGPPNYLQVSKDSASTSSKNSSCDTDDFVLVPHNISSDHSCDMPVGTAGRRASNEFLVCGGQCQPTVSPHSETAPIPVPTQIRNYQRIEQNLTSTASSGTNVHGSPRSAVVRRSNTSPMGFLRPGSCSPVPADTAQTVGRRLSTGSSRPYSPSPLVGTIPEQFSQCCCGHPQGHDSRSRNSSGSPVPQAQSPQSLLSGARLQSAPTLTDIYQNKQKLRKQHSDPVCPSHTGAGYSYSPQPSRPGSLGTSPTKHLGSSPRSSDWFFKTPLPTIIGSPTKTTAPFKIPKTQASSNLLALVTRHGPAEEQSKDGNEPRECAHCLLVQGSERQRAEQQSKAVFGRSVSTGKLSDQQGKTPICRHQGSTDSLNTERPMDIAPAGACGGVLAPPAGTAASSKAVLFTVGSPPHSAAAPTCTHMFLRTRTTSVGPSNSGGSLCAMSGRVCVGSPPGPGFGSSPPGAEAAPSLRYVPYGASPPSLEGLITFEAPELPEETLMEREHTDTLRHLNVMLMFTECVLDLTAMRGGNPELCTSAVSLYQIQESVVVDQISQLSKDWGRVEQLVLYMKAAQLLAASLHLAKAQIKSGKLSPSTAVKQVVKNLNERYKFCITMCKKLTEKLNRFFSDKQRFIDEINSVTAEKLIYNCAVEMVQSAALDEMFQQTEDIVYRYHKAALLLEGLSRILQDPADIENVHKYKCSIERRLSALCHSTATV

[5] = biological target: Ephrin type-B receptor 4 (Homo sapiens) (UniProt P54760); experiment: EphB4(h) Millipore kinase panel; conditions: Compound concentration 1.0 uM
[6] = biological target: Tau-tubulin kinase 2 (Homo sapiens) (UniProt Q6IQ55); experiment: TTBK2(h) Millipore kinase panel; conditions: Compound concentration 1.0 uM
[7] = biological target: Transcription initiation factor TFIID subunit 1-like (Homo sapiens) (UniProt Q8IZX4); experiment: TAF1L(h) Millipore kinase panel; conditions: Compound concentration 1.0 uM
[8] = biological target: D(2) dopamine receptor (Homo sapiens) (UniProt P14416); conditions: Compound concentration 10.0 uM
[9] = biological target: Sigma intracellular receptor 2 (Homo sapiens) (UniProt Q5BJF2); conditions: Compound concentration 10.0 uM
[10] = biological target: Fibroblast growth factor receptor 3 (Homo sapiens) (UniProt P22607); experiment: FGFR3(h) Millipore kinase panel; conditions: Compound concentration 1.0 uM
[11] = biological target: Serine/threonine-protein kinase PAK 5 (Homo sapiens) (UniProt Q9P286); experiment: PAK5(h) Millipore kinase panel; conditions: Compound concentration 1.0 uM
[12] = biological target: MAPK/MAK/MRK overlapping kinase (Homo sapiens) (UniProt Q9UQ07); experiment: MOK(h) Millipore kinase panel; conditions: Compound concentration 1.0 uM
MAPK/MAK/MRK overlapping kinase (Homo sapiens), sequence (Q9UQ07 whole entry): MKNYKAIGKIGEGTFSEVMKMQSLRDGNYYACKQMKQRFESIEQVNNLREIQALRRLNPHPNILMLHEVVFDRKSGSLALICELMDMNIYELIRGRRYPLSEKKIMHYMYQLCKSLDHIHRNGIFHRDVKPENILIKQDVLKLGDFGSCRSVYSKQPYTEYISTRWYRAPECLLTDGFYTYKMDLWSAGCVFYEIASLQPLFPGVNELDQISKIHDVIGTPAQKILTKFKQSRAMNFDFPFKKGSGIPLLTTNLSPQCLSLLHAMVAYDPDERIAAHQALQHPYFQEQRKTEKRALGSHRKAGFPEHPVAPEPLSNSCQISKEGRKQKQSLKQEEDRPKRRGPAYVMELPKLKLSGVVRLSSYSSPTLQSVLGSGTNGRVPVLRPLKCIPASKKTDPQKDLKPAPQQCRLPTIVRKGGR

[13] = biological target: cGMP-dependent protein kinase 1 (Homo sapiens) (UniProt Q13976); experiment: PKG1alpha(h) Millipore kinase panel; conditions: Compound concentration 1.0 uM
cGMP-dependent protein kinase 1 (Homo sapiens), sequence (Q13976 whole entry, canonical isoform): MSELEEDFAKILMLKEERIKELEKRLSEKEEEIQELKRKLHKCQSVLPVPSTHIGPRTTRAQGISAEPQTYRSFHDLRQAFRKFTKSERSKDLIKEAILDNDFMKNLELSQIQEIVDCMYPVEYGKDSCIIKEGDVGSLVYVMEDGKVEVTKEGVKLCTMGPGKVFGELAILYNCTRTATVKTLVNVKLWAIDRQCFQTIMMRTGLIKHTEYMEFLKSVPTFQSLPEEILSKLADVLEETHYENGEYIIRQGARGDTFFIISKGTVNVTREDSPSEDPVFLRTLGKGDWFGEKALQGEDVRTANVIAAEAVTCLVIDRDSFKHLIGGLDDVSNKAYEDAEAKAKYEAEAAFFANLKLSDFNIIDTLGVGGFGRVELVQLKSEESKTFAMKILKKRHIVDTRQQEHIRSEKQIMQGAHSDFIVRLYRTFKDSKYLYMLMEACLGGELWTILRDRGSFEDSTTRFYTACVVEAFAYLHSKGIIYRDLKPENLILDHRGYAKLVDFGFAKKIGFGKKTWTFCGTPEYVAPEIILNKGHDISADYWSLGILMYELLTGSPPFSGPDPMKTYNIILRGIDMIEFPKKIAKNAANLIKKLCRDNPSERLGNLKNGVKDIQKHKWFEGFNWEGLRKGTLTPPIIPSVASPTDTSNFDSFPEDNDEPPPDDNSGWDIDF

[14] = biological target: Casein kinase I isoform gamma-1 (Homo sapiens) (UniProt Q9HCP0); experiment: CK1gamma1(h) Millipore kinase panel; conditions: Compound concentration 1.0 uM
[15] = biological target: Serine/threonine-protein kinase B-raf (Homo sapiens) (UniProt P15056); experiment: BRaf(h) Millipore kinase panel; conditions: Compound concentration 1.0 uM
[16] = biological target: Endothelin receptor type B (Homo sapiens) (UniProt P24530); conditions: Compound concentration 10.0 uM
Endothelin receptor type B (Homo sapiens), sequence (P24530 whole entry): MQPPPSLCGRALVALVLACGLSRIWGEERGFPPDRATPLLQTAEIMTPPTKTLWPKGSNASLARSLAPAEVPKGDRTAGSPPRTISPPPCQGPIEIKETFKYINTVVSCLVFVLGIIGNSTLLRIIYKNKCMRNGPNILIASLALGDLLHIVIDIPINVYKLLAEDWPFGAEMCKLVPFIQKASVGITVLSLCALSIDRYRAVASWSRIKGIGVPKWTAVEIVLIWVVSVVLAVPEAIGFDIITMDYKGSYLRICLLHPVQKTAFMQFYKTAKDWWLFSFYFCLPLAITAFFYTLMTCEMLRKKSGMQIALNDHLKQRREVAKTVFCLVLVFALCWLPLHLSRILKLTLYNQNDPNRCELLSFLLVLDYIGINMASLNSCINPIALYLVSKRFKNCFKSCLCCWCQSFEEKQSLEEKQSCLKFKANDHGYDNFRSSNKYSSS

[17] = biological target: CDK12/Cyclin K (Homo sapiens) (UniProt O75909+Q9NYV4); experiment: CDK12/cyclinK(h) Millipore kinase panel; type: protein-complex assay; conditions: Compound concentration 1.0 uM
[18] = biological target: Dual specificity protein kinase TTK (Homo sapiens) (UniProt P33981); experiment: TTK(h) Millipore kinase panel; conditions: Compound concentration 1.0 uM
[19] = biological target: mTOR/FKBP12A/FKBP12B (Homo sapiens) (UniProt P62942+P68106+P42345); experiment: mTOR FKBP12(h) Millipore kinase panel; type: protein-complex assay; conditions: Compound concentration 1.0 uM
mTOR/FKBP12A/FKBP12B (Homo sapiens), sequence (P62942 2-108 limits assumed, other chains not shown): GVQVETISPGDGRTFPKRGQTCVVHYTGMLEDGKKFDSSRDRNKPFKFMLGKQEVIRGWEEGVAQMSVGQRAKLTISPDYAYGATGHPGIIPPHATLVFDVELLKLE
mTOR/FKBP12A/FKBP12B (Homo sapiens), sequence (P68106 whole entry partner, other chains not shown): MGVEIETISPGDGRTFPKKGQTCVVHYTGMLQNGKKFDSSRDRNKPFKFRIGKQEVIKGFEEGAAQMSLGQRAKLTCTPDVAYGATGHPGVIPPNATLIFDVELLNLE

[20] = biological target: Ephrin type-A receptor 8 (Homo sapiens) (UniProt P29322); experiment: EphA8(h) Millipore kinase panel; conditions: Compound concentration 1.0 uM
[21] = biological target: Calcium/calmodulin-dependent protein kinase type 1D (Homo sapiens) (UniProt Q8IU85); experiment: CaMKIdelta(h) Millipore kinase panel; conditions: Compound concentration 1.0 uM
[22] = biological target: Mu-type opioid receptor (Homo sapiens) (UniProt P35372); conditions: Compound concentration 10.0 uM
[23] = biological target: Glucocorticoid receptor (Homo sapiens) (UniProt P04150); conditions: Compound concentration 10.0 uM
Glucocorticoid receptor (Homo sapiens), sequence (P04150 whole entry): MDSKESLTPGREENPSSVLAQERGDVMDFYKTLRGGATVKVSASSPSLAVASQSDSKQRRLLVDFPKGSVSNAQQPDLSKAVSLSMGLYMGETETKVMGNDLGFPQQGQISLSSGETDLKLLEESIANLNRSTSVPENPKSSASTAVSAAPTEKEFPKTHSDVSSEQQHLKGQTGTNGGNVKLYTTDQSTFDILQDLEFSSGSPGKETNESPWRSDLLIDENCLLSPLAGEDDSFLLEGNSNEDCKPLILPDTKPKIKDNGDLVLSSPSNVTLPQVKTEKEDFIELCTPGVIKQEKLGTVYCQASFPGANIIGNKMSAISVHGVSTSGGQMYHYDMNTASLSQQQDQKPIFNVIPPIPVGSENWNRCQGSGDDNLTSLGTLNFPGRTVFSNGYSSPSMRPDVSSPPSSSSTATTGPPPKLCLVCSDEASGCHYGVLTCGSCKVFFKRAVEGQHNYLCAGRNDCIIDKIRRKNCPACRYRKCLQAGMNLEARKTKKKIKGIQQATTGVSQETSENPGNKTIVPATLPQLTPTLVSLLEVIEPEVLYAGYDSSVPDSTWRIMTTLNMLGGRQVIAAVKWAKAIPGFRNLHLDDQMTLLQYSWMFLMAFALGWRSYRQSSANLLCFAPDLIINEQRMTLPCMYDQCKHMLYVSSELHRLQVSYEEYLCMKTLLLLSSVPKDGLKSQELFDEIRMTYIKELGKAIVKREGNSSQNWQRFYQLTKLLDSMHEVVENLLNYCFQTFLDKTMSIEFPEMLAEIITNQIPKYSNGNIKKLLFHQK

[24] = biological target: Cyclin-dependent kinase 2/cyclin E (Homo sapiens) (UniProt P24864+P24941+O96020); experiment: CDK2/cyclinE(h) Millipore kinase panel; type: protein-complex assay; conditions: Compound concentration 1.0 uM
[25] = biological target: Phosphatidylinositol 4-phosphate 5-kinase type-1 gamma (Homo sapiens) (UniProt O60331); experiment: PIP5K1g(h) Millipore kinase panel; conditions: Compound concentration 1.0 uM
[26] = biological target: Protein kinase C beta type (Homo sapiens) (UniProt P05771); experiment: PKCbetaII(h) Millipore kinase panel; conditions: Compound concentration 1.0 uM
[27] = biological target: Serine/threonine-protein kinase MARK1 (Homo sapiens) (UniProt Q9P0L2); experiment: MARK1(h) Millipore kinase panel; conditions: Compound concentration 1.0 uM
[28] = biological target: Phosphatidylinositol 4-phosphate 5-kinase type-1 alpha (Homo sapiens) (UniProt Q99755); experiment: PIP5K1a(h) Millipore kinase panel; conditions: Compound concentration 1.0 uM
Phosphatidylinositol 4-phosphate 5-kinase type-1 alpha (Homo sapiens), sequence (Q99755 whole entry): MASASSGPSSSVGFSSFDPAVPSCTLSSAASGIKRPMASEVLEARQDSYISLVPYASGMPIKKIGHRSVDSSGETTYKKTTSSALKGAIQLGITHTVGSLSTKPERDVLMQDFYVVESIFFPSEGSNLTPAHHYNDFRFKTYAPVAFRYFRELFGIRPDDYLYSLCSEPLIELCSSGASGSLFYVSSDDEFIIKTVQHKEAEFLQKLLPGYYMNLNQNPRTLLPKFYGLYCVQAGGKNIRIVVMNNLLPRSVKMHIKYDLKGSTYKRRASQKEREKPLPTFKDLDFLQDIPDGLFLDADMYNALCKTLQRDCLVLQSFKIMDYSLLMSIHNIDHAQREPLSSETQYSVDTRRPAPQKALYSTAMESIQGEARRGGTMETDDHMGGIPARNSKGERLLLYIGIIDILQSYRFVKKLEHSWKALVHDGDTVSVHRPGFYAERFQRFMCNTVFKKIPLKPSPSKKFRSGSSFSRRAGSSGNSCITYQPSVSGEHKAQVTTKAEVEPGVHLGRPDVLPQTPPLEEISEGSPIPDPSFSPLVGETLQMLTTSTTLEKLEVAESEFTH

[29] = biological target: Mitogen-activated protein kinase 8 (Homo sapiens) (UniProt P45983); experiment: JNK1alpha1(h) Millipore kinase panel; conditions: Compound concentration 1.0 uM
[30] = biological target: Casein kinase I isoform delta (Homo sapiens) (UniProt P48730); experiment: CK1delta(h) Millipore kinase panel; conditions: Compound concentration 1.0 uM
[31] = biological target: T2, Alpha-2C adrenergic receptor (Homo sapiens) (UniProt P18825); conditions: Compound concentration 10.0 uM
T2 sequence (whole entry): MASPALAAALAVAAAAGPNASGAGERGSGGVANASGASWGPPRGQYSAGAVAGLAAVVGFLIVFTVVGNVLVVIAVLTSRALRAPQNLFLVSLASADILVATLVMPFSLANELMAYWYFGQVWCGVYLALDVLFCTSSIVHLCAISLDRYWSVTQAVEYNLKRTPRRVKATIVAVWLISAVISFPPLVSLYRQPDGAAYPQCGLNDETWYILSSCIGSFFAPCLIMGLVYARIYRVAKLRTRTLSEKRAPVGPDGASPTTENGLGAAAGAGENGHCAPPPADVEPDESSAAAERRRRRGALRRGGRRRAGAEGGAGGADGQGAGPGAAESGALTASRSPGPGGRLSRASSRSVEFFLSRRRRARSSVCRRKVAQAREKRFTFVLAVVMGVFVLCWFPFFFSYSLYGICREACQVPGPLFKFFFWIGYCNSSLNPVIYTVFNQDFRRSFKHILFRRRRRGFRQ

[32] = biological target: 5-hydroxytryptamine receptor 1E (Homo sapiens) (UniProt P28566); conditions: Compound concentration 10.0 uM
[33] = biological target: G protein-coupled receptor kinase 6 (Homo sapiens) (UniProt P43250); experiment: GRK6(h) Millipore kinase panel; conditions: Compound concentration 1.0 uM
[34] = biological target: Prostaglandin G/H synthase 1 (Homo sapiens) (UniProt P23219); experiment: Cyclooxygenase COX-1 Eurofins-Panlabs enzyme assay; set-up: substrate with concentration; conditions: Compound concentration 10.0 uM
[35] = biological target: Aurora kinase C (Homo sapiens) (UniProt Q9UQB9); experiment: Aurora_C(h) Millipore kinase panel; conditions: Compound concentration 1.0 uM

Measured: inhibition

SNF-related serine/threonine-protein kinase (Homo sapiens), sequence (Q9NRH2 whole entry): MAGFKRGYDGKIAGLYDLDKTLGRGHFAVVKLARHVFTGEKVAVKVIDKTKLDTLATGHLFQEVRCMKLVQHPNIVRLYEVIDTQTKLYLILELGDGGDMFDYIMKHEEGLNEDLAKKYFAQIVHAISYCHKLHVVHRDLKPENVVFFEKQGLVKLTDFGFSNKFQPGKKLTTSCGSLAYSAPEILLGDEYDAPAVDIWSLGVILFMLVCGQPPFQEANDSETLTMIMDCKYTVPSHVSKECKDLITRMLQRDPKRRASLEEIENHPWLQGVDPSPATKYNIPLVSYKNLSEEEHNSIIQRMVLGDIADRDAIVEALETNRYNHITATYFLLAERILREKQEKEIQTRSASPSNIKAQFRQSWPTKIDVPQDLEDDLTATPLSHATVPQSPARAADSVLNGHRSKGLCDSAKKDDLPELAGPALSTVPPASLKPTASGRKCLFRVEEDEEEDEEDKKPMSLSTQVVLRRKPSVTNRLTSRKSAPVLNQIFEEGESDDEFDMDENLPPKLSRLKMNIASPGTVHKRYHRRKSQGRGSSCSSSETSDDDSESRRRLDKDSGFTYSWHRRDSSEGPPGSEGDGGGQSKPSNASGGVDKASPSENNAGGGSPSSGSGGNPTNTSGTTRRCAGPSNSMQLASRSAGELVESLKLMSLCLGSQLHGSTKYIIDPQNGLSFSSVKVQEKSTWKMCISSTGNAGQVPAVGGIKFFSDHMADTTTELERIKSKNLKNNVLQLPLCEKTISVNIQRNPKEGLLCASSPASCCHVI

CC[C@@H](Nc1c(C#N)c(-c2ccc(-c3cccc(C)c3F)cc2)nc2cnccc12)C(=O)O [BAY-091]
inactive: [1] 10.3% | [2] 20% | [3] -4.91% | [4] 5.46% | [5] 11.8% | [6] 1.17% | [7] -3.49% | [8] 13.8% | [9] 24.6% | [10] -1% | [11] 1.42% | [12] 5.44% | [13] 6.77% | [14] 8.17% | [15] 23.5% | [16] 1% | [17] 10.3% | [18] -9.1% | [19] 1.38% | [20] -6.72% | [21] 4.68% | [22] 13% | [23] 32% | [24] 7.13% | [25] 1.51% | [26] -1.59% | [27] 2.52% | [28] 10% | [29] 4.24% | [30] 9.07% | [31] 4% | [32] 17.2% | [33] 0.16% | [34] 19% | [35] 4.64%
